Experimental data reported in patent US9593153B2, “Modified apelin polypeptides” (INSERM (INSTITUT NATIONAL DE LA SANTE ET DE LA RECHERCHE …, priority 2012, dated 2017).
“Also recorded” adds a separate entry of the source.

Key:
proApelin processing = proApelin processing in transfected cells with PC inhibitors (immunoblot); assay type: cell-based, human; conditions: cell transfection experiments, coexpression with apelin
Source text: FIG. 2: Human apelin cDNA encodes a protein of 77 amino acid residues. Newly synthesized apelin is a preproprotein that is proteolytically processed in order to generate mature 36, 17 and 13 amino acid forms. We cloned human apelin into pIRES2-eGFP vector adding a V5 tag in C-terminus of the apelin sequence. […] To identify the PCs involved in apelin processing, apelin and each of the PCs were transiently co-expressed in LoVo cells, a furin-deficient cell line. Supernatants were collected 24 hours after transfection and analyzed for proapelin processing by immunoblotting using a V5 antibody. As illustrated in (a), analyses of media derived from LoVo cells cotransfected with vector encoding proapelin and control vector show a band with an apparent molecular mass of 8-9 kDa, corresponding to the intact apelin precursor. […] FIG. 3: […]

human platelets [1] = experiment: Thrombin-induced aggregation of washed human platelets; assay type: cell-based; conditions: for thrombin-induced platelet aggregation: human platelets preincubated with peptide alone; for effect on the apelin inhibitory effect on thrombin-induced aggregation: human platelets, peptide together with apelin
Experimental: FIG. 5: APJ antagonist […]) and unprocessed double mutant apelin-36 (apelin-DM) confirm the role of APJ in the inhibition of platelet function by apelin. Thrombin-induced aggregation of human platelets preincubated with PBS, as control (black bar); […] (100 nM; white bar); apelin (10 nM; grey bar) or […] (100 nM) plus apelin (10 nM) (dashed bar). Venous blood was collected from healthy donors on 10% (v/v) trisodium citrate (3.8%). Written informed consent was obtained from all the donors. Platelet-rich plasma (PRP) was obtained by centrifugation (120 g; 15 minutes; 20° C.) and platelets were isolated by differential centrifugation as previously described^15. The platelet pellet was resuspended in modified Tyrode-HEPES buffer without CaCl2 (137 mM NaCl, 2 mM KCl, 0.3 mM NaH2PO4, 5.5 mM glucose, 5 mM Hepes, 12 mM NaHCO3, pH 7.3). Platelet aggregation was monitored by measuring light transmission through the stirred suspension of washed platelets (3×10^8/mL) at 37° C. in presence of 1 mM CaCl2 using a Chronolog aggregometer (Chrono-log Corporation, USA). When mentioned, platelets were first incubated with apelin-13, apelin-36, apelin-DM or […] for 3 minutes at 37° C. Platelet aggregation was triggered by adding collagen, thrombin, or ADP. Representative traces for aggregation were obtained from at least three independent experiments. Results are expressed as the percent change in light transmission with respect to the blank (buffer without platelets), set at 100%.

human platelets [2] = experiment: Intracellular Ca2+ mobilization in thrombin-stimulated human platelets (Fura-2); assay type: cell-based; conditions: for thrombin-induced Ca2+ mobilisation: human platelets preincubated with peptide alone; for effect on the apelin inhibitory effect on thrombin-induced Ca2+ mobilisation: human platelets, peptide together with apelin
Experimental: FIG. 6: APJ antagonist […]) and unprocessed double mutant apelin-36 (apelin-DM) confirm the role of APJ in the inhibition of platelet function by apelin. Intracellular Ca^2+ mobilization ([Ca^2+]i) in human platelets was monitored in real-time using a fluorescence spectrophotometer. Human platelets, loaded with Fura-2-AM were preincubated 3 minutes with PBS, as control (black bar); […] (100 nM; white bar); apelin (10 nM; grey bar) or […] (100 nM) plus apelin (10 nM) (dashed bar) before stimulation by thrombin (100 mU/mL). […] Human platelets were loaded with Fura-2 by incubation with 2 μM Fura-2-AM for 45 minutes at 37° C. Cells were then collected by centrifugation at 350 g for 15 min and resuspended in HEPES-buffered saline (145 mM NaCl, 10 mM HEPES, 10 mM D-glucose, 5 mM KCl, 1 mM MgSO4, pH 7.4), and supplemented with 0.1% (w/v) BSA. Fluorescence was recorded from 2 mL aliquots of magnetically stirred cell suspensions at 37° C. using a fluorescence spectrophotometer (Varian Ltd., Madrid, Spain) with excitation wavelengths of 340 and 380 nm and emission at 505 nm. Changes in [Ca^2+]i were monitored using the Fura-2 340/380 fluorescence ratio and calibrated according to the method of Grynkiewicz et al.^19. Ca^2+ release by thrombin was estimated using the integral of the rise in [Ca^2+]i for 2.5 minutes after its addition, taking a sample every second, and was expressed in nM as previously described^20.

wild-type mice = experiment: Tail bleeding time after intravenous injection; assay type: in vivo, mouse; conditions: for tail bleeding time: peptide alone; for effect on the apelin-induced increase in bleeding time: peptide together with apelin
Source text: FIG. 7: APJ antagonist […]) and unprocessed double mutant apelin-36 (apelin-DM) confirm the role of APJ in the inhibition of platelet function by apelin. Tail bleeding time in wild-type mice receiving an intravenous injection of PBS, as control (●); […] (500 nmol/kg; ▪); apelin (50 nmol/kg; ◯) or […] (500 nmol/kg) plus apelin (50 nmol/kg) (□). FIG. 8: APJ antagonist […]) and unprocessed double mutant apelin-36 (apelin-DM) confirm the role of APJ in the inhibition of platelet function by apelin. Tail bleeding time in wild-type mice receiving an intravenous injection of PBS, as control (●); apelin (50 nmol/kg; ◯); apelin-36 (500 nmol/kg; Δ); apelin-DM (500 nmol/kg; ▪), apelin-36 plus apelin (▾) or apelin-DM plus apelin (□). Complete blood counts and haematocrit were determined with an automatic cell counter, using the standard parameters for mice. Bleeding time assays were performed on overnight fasted animals, after injection of PBS, apelin-13, apelin-36, apelin-DM or […] into the retro-orbital plexus, by cutting off the tip of the tail (3 mm from the tip) and immediately immersing it in saline at 37° C. We then recorded the time taken for the bleeding to stop.

HUVEC [3] = experiment: HUVEC proliferation induced by VEGF (Cell Titer96 assay); assay type: cell-based, human
Experimental: FIG. 9: HUVEC proliferation and motility. HUVEC were serum deprived overnight and then treated for 24 h with or without VEGF in the presence of apelin wild-type (10 ng/ml) and/or apelin mut-36 (10 ng/ml). Cell proliferation was assessed using Cell Titer96 non-radioactive cell proliferation assay.

HUVEC [4] = experiment: Endothelial cell migration (motility) induced by VEGF; assay type: cell-based, human
[5] = tested on: chick chorioallantoic membrane; experiment: Chick chorioallantoic membrane (CAM) assay; assay type: in vivo
mouse aortic ring = experiment: Mouse aortic ring assay
[6] = Cutaneous reverse passive Arthus reactions assay; assay type: in vivo

ppPC5: PC inhibitor, prosegment proPC5
processing of proApelin (proApelin processing): inhibited

Apelin-36: proApelin (Apelin-36), 36 amino acid cleavage product of preproapelin (LVQPRGSRNGPGPWQGGRRKFRRQRPRLSHKGPMPF; listed as Homo sapiens)
thrombin-induced platelet aggregation (human platelets [1]): inhibited
thrombin-induced Ca2+ mobilisation (human platelets [2]): inhibited
tail bleeding time (wild-type mice): significant increase in bleeding time

LVQPRGSRNGPGPWQGGSSKFSSQRPRLSHKGPMPF (Synthetic inhibitor of apelin) [Apelin-DM, unprocessed mutant of apelin; cleavage sites of proapelin (18RRKFRR) replaced by 18SSKFSS]
effect on the apelin inhibitory effect on thrombin-induced aggregation (human platelets [1]): abolished the apelin inhibitory effect
effect on the apelin inhibitory effect on thrombin-induced Ca2+ mobilisation (human platelets [2]): abolished the apelin inhibitory effect
effect on the apelin-induced increase in bleeding time (wild-type mice): inhibited
endothelial cell proliferation induced by VEGF (HUVEC [3]): inhibits
endothelial cell migration induced by VEGF (HUVEC [4]): inhibits
formation of new vessels (neo-vascularisation) [5]: prevents the neo-vascularisation
formation of new vessels (neo-vascularisation) (mouse aortic ring): prevents the neo-vascularisation
tissue inflammation [6]: inhibited these processes

apelin
tissue inflammation [6]: increased tissue inflammation

F13A: APJ receptor antagonist apelin-13 (F13A)
thrombin-induced platelet aggregation (human platelets [1]): no effects
effect on the apelin inhibitory effect on thrombin-induced aggregation (human platelets [1]): prevents the inhibitory effects of apelin alone; also recorded: abolished the apelin inhibitory effect
thrombin-induced Ca2+ mobilisation (human platelets [2]): no effects
effect on the apelin inhibitory effect on thrombin-induced Ca2+ mobilisation (human platelets [2]): prevents the inhibitory effects of apelin alone; also recorded: abolished the apelin inhibitory effect
tail bleeding time (wild-type mice): no effects
effect on the apelin-induced increase in bleeding time (wild-type mice): prevents the inhibitory effects of apelin alone; also recorded: inhibited

alpha1-PDX: Furin inhibitor serpin alpha1-antitrypsin, furin-motif variant of α1-antitrypsin
processing of proApelin (proApelin processing): inhibited

apelin-13
thrombin-induced platelet aggregation (human platelets [1]): inhibited
thrombin-induced Ca2+ mobilisation (human platelets [2]): inhibited
tail bleeding time (wild-type mice): significant increase in bleeding time
formation of new vessels (neo-vascularisation) [5]: induced the formation of new vessels
formation of new vessels (neo-vascularisation) (mouse aortic ring): induced the formation of new vessels

ppFurin: Furin inhibitor, prosegment proFurin
processing of proApelin (proApelin processing): inhibited
